The nature of assay [1]: DPPH radical scavenging test (colorimetric). Particulars: concentration scavenging 50% of DPPH radicals; 10 min, room temperature, 517 nm; mean ± SD. Here is the method: Antioxidative properties of the obtained MPA derivatives were assessed chemically using a colorimetric DPPH test. The IC50 value represents the scavenging activity, defined as the concentration of a compound required to scavenge 50% of DPPH radicals.
Briefly, 400 µL solution of each synthesized compound with different concentrations (20–1000 µg/mL) was added to 1.6 mL DPPH solution (100 µmol/L). After shaking, the mixture was incubated at room temperature in the dark for 10 min, and then the absorbance was measured at 517 nm. The %Scavenging activity was calculated by using the formula: […]
The scavenging activity was expressed as IC50 value, defined as the concentration (mM) of compound required for scavenging DPPH radicals by 50%. IC50 values were determined by linear regression analysis using at least three different concentrations in duplicate.
Three different concentrations were prepared for each sample, while each one was analyzed in duplicate. […] The statistical analysis was performed using Tukey’s HSD test (p < 0.05). The statistical software Statistica 10 software (StatSoft Inc., Tulsa, OK, USA) was implemented for this analysis.
In general terms: DPPH is a stable violet radical that fades when it is reduced.

The test system of assay [2] is IMPDH (PBMC proliferation). The assay is described as follows: GMP test: PBMC proliferation with or without guanosine source (IMPDH inhibition). Particulars: for PBMC proliferation upon GMP addition (reversal of inhibition): with 50 µM GMP. The assay is classed as cell-based, human. The procedure: ESI Figure 4. Antiproliferative activity of MPA, MMF, and various esters of MPA in the presence of guanosine source — role of IMPDH inhibiton. VPD450-labeled human PBMCs, in the presence of different concentrations (50; 25; 10; 1, and 0.1 μM) of MPA, MMF, and esters, and stimulated (magnetic beads coated with anti-CD3 and anti-CD28 antibodies) were cultured with or without the addition of 50 μM GMP for 72 h. Cell proliferation was analyzed […]
(1 picture or pasted object on this page, not shown here) […]
inhibited cell viability by more than 50%. Each experiment was conducted in triplicate, and the final […]
VPD450 dye-based in vitro cell proliferation test
PBMCs and T-Jurkat cells were washed twice with warm PBS (37°C), re-suspended in fresh PBS at a final concentration of 10-30∙10^6 cells/ml, and labelled with 1 µl of VPD450 (BD Biosciences) at 37°C for 15 minutes, with vortexing every 5 minutes to ensure uniform staining. Subsequently, cells were washed with PBS, then with the complete medium (X-VIVO20 for PBMCs and RPMI-1640 for T-Jurkat cells), next re-suspended in fresh complete medium and seeded into 96-well plates at a concentration of 1∙10^6 cells per well. PBMCs were additionally stimulated with magnetic beads coated with anti-CD3 and anti-CD28 antibodies (Invitrogen) at a 2:1 cell-to-bead ratio. To the experimental wells, 100 µl of the MPA derivatives were added to achieve final concentrations of 50, 25, 10, 5, 1, 0.1, and 0.01 µM. In parallel, control wells containing stained but unstimulated cells and stained, stimulated cells were prepared at the same concentration. Cell proliferation was analyzed using an LSRFortessa flow cytometer (BD Biosciences) and Kaluza C Flow Cytometry Analysis Software (Beckman Coulter).
The data were expressed as EC50 values for compounds that inhibited more than 50% of cell […]
Enzyme inhibition in the presence of guanosine source (GMP test)
PBMCs were suspended in a 15 mL centrifuge tube at a concentration of 10-30 × 10⁶ cells in 1 mL of PBS, then, 2 μL of 1 mM VPD 450 dye solution was added, incubated for 15 min at 37°C, washed with a 9-fold volume of warm PBS and centrifuged at 400 x g for 5 min. Then, the cells were suspended in 10 mL of X-VIVO medium with 10% FBS and centrifuged again at 400 x g for 5 min. After suspending the cells in the complete medium, the staining level was checked using flow cytometry. The cells thus obtained were stimulated with anti-CD3/anti-CD28 antibodies as described previously (see VPD450 dye-based in vitro cell proliferation test). To perform the GMP test, a proper amount of GMP was added to each well to reach its final concentration of 50 μM, and then incubated for 72 hours. Proliferative activity was tested in the presence of various concentrations of compounds (50; 25; 10; 1 and 0.1 μM; MPA and selected amide derivatives) or without their addition. Cell proliferation was assessed using […]
Statistical analysis was conducted using GraphPad Prism 9 (GraphPad Software Inc).
Differences between MMF, MPA and its new derivatives were assessed using a two-tailed unpaired Student’s t-test, with statistical significance defined as p < 0.05. EC50 and IC50 values were determined by fitting data to a four-parameter non-linear regression model in GraphPad Prism 9. Statistical significance was evaluated using the t-test.

Assay [3] relates to AsPC-1 cells (human pancreatic cancer cells). The assay is described as follows: MTT cytotoxicity assay on AsPC-1 cell line. The class given is cell-based. The conditions noted are these: ASPC1, 72 h treatment, n = 3, mean ± SD. The procedure:
Table 2 presents the concentration of the tested compounds, namely: P4, P7, MP9, MPA, MMF, and gemcitabine (GEM; a standard), which inhibited the proliferation of AsPC-1 cells (human pancreatic cancer cells) by 50% (expressed as IC50 values) compared to the control. Cells were treated with compounds for 72 h and then a colorimetric MTT assay was performed. A graphical representation of these values can be seen in ESI Fig. S1.
Biological evaluation — AsPC-1 cell line
AsPC-1 pancreatic cancer cells (purchased from the American Type Culture Collection, ATCC, Manassas, VA, USA) were maintained in RPMI 1640 medium (Sigma-Aldrich, St Louis, MO, USA), supplemented with heat-inactivated 10% fetal bovine serum (FBS; Biowest, Riverside, MO, USA), 100 µg/mL streptomycin, and 100 units/mL penicillin. Cells were incubated in a humidified atmosphere of 5% CO2 at 37°C. All experiments were performed on cells in a logarithmic growth phase.
To investigate the effect of the tested compounds on cell viability, a colorimetric analysis was performed using MTT (3-(4,5-Dimethyl-2-thiazolyl)-2,5-diphenyl-2H-tetrazolium bromide, Sigma-Aldrich, St Louis, MO, USA) based on the reduction of this yellow salt in metabolically active cells to purple formazan crystals. Cells were seeded onto 96-well plates at 2∙10^3 cells/well and after 24 h incubation for cell attachment, cells were treated with various concentrations of tested compounds and gemcitabine (positive control) up to 50 µM. After 72 hours of incubation, 20 µL MTT at a concentration of 4 mg/mL was added to each well for 3-4 hours. The culture medium was then aspirated and formazan crystals were dissolved in DMSO. The absorbance of the solutions was measured at 540 nm using an iMark Microplate Absorbance Reader (Bio-Rad, Hercules, CA, USA). The drug concentrations required to inhibit cell growth by 50% (IC50) compared to untreated control cells were determined from curves plotting survival as a function of dose. Results were obtained from at least three independent […]
Statistical analysis of MTT cytotoxicity assay results was performed using GraphPad Prism 5.0 by two-tailed unpaired Student’s t-test. Differences p < 0.05 between MPA and its derivatives and gemcitabine were considered statistically significant according to the following criteria: * p < 0.05, ** p <
For orientation: Tetrazolium assays rely on reduction of a dye to a coloured formazan, in cell work by metabolically active cells.

As usually defined, the IC50 is the concentration at which inhibition is half-maximal. High values mean weaker potency in that assay, low ones greater potency in that assay. With `COc1ccccc1OC(=O)CC/C(C)=C/Cc1c(O)c2c(c(C)c1OC)COC2=O` [MP1], the 50% inhibitory concentration (IC50) in assay [1] was determined as 23.8 ± 0.411 mM.
Take `COc1c(C)c2c(c(O)c1C/C=C(\C)CCC(=O)Oc1ccc(CCC(C)=O)cc1)C(=O)OC2` [P7]: the figures for the IC50 in assay [1] and in assay [3] were 0.124 mM and 0.00245 mM, respectively. Moreover, the “PBMC proliferation upon GMP addition (reversal of inhibition)” value in assay [2] (50 µM compound, 72 h) was “comparable pattern”.
On to `COc1c(C)c2c(c(O)c1C/C=C(\C)CCC(=O)OCCN1CCOCC1)C(=O)OC2` [MMF, mycophenolate mofetil, reference compound], for which the half-maximal inhibitory concentration (IC50) in assay [1] worked out at 19 ± 0.279 mM; in assay [3], 0.00203 ± 4.2e-05 mM. The “Inhibition of PBMC proliferation” value in assay [2] (50 µM compound, without GMP, 72 h) was “near-complete inhibition”.
As for `COc1c(C)c2c(c(O)c1C/C=C(\C)CCC(=O)Oc1cc(C)ccc1C(C)C)C(=O)OC2` [P2], the midpoint of inhibition in assay [1], the IC50, lay at 11.67 ± 0.113 mM.
In assay [1], `COc1cccc(OC)c1OC(=O)CC/C(C)=C/Cc1c(O)c2c(c(C)c1OC)COC2=O` [MP2] returned a 50% inhibitory concentration (IC50) of 3.72 ± 0.23 mM.
On the same count and under the same terms, in the case of `COc1c(C)c2c(c(O)c1C/C=C(\C)CCC(=O)Oc1ccc(C=O)cc1)C(=O)OC2` [P5] it was 28.2 ± 0.357 mM; in that of `COc1cc(C=O)cc(OC)c1OC(=O)CC/C(C)=C/Cc1c(O)c2c(c(C)c1OC)COC2=O` [MP3], 12.2 ± 0.252 mM.
As to `COc1c(C)c2c(c(O)c1C/C=C(\C)CCC(=O)O)C(=O)OC2` [MPA, Mycophenolic acid], the results for the IC50 in assay [1] and in assay [3] were 15.73 ± 0.144 mM and 0.00174 ± 0.000259 mM, respectively. Further, in assay [2] (50 µM), the “Inhibition of PBMC proliferation” value is “near-complete inhibition”.
One may read the inhibition as the share of the control response that was lost under treatment. Compound `COc1c(C)c2c(c(O)c1C/C=C(\C)CCC(=O)Oc1ccc3c(c1)OCO3)C(=O)OC2` [P1] yielded an IC50 in assay [1] of 43.57 ± 0.38 mM. Besides, in assay [2] (50 µM compound, 72 h), the “PBMC proliferation upon GMP addition (reversal of inhibition)” value was “reversed”. This compound had an inhibition at 50 µM in assay [2] (Homo sapiens, PBMC, 50 µM compound, without GMP, 72 h) of around 80%.
Turning to `COC(=O)/C=C/c1ccc(OC(=O)CC/C(C)=C/Cc2c(O)c3c(c(C)c2OC)COC3=O)c(OC)c1` [MP7], the midpoint of inhibition in assay [1], the IC50, lay at 3.64 ± 0.113 mM.
Regarding `C/C=C/c1ccc(OC(=O)CC/C(C)=C/Cc2c(O)c3c(c(C)c2OC)COC3=O)c(OC)c1` [MP9], the half-maximal inhibitory concentration (IC50) in assay [1] was 0.373 ± 0.041 mM; in assay [3] it was 0.00381 mM. For the same compound, the “PBMC proliferation upon GMP addition (reversal of inhibition)” value in assay [2] (50 µM compound, 72 h) is “comparable pattern”.
Turning to `COc1cc(C=O)ccc1OC(=O)CC/C(C)=C/Cc1c(O)c2c(c(C)c1OC)COC2=O` [MP4], the IC50 in assay [1] was 6.4 ± 0.311 mM.
In turn, `C=CCc1ccc(OC(=O)CC/C(C)=C/Cc2c(O)c3c(c(C)c2OC)COC3=O)c(OC)c1` [MP8] yielded an IC50 in assay [1] of 6.9 ± 0.225 mM.
For `COC(=O)/C=C/c1ccccc1OC(=O)CC/C(C)=C/Cc1c(O)c2c(c(C)c1OC)COC2=O` [P4], the IC50 in assay [1] is 0.308 ± 0.031 mM; in assay [3], 0.00287 mM. In addition, the “PBMC proliferation upon GMP addition (reversal of inhibition)” value in assay [2] (50 µM compound, 72 h) was “comparable pattern”.

The values above are taken from PMC12271471, “Direct synthesis of mycophenolic acid aryl esters with antioxidant and antiproliferative properties” (Scientific Reports, 2025).
